Assay results taken from patent US7541188B2, “Skin substitutes and uses thereof” (Stratatech Corporation, priority 2001, dated 2009).
Like-named read-outs stand apart in the source and are kept apart here.

What was measured:
[1] = tested on: in vitro skin equivalent cultures; settings: substance added to in vitro cultures; cited from earlier work
[2] = tested on: skin equivalents; settings: irritant-treated skin equivalents; cited from earlier work
[3] = tested on: tracheobronchial epithelial cells; settings: cited from earlier work
[4] = tested on: NIKS organotypic cultures; experiment: IL-1α secretion by NIKS organotypic cultures (Quantikine IL-1α ELISA of media); assay type: cell-based, human; settings: 0.1% SDS applied topically, 24 hr, 37° C.
Method: Solutions of SDS (0.1%, 0.2%, and 0.5%) were topically applied to air-exposed NIKS organotypic cultures and incubated for 24 hr at 37° C. After 24 hr, the media underneath the cultures was assayed for IL-1α protein using a Quantikine IL-1α ELISA kit (R&D Systems, Minneapolis, Minn.) and cultures were incubated with MTS reagent (Promega Corp., Madison, Wis.) to determine cell viability. Media from untreated cultures contained 25 pg/ml IL-1α, whereas the concentration of IL-1α in cultures treated with 0.1%, 0.2% or 0.5% SDS was 290, 375 and 275 pg/ml respectively.

[5] = tested on: in vitro skin equivalent cultures; settings: substance added to in vitro cultures, cited from earlier work

Compound | expression and secretion of the pro-inflammatory cytokines IL-1α and IL-8 [2] | Barrier Function [5] | further results
EGF: epidermal growth factor (NSDSECPLSHDGYCLHDGVCMYIEALDKYACNCVVGYIGERCQYRDLKWWELR; Epidermal growth factor; UniProt P01133 971-1023, looked up) |  |  | Lipid Composition [1]: High
C=C1/C(=C\C=C2/CCC[C@]3(C)[C@@H]([C@H](C)/C=C/[C@@H](O)C4CC4)CC[C@@H]23)C[C@@H](O)C[C@@H]1O [calcipotriol] | induce expression and secretion |  | 
CC1=C(/C=C/C(C)=C/C=C/C(C)=C/C(=O)O)C(C)(C)CCC1 [trans-retinoic acid] | induce expression and secretion |  | induction of reporter gene containing IL-8 promoter sequences between −1472 and +19 [3]: induced
CCCCCCCCCCCCOS(=O)(=O)[O-].[Na+] [SDS] | induce expression and secretion |  | concentration of IL-1α in media [4]: 290 pg/mL
Estrogen |  | Accelerates | 
Vitamin D |  | Improved/No | Barrier Function ([5]; listed as vitamin D): improvements in some studies
